Assay [1] deals with Protein kinase C delta type (Homo sapiens, UniProt Q05655). Kind of assay: Binding affinity for human recombinant protein kinase C delta.
The subject of the next assay is HL-60. The experiment in a line: Compound was evaluated for its effective dose against HL-60 cells. The assay is classed as functional. To be noted: Homo sapiens, read-out: ED50 (the source's name).

Each structure is given as a SMILES string. pEC50, pKi: −log10 of the molar value.

Protein kinase C delta type, sequence (Q05655 whole entry): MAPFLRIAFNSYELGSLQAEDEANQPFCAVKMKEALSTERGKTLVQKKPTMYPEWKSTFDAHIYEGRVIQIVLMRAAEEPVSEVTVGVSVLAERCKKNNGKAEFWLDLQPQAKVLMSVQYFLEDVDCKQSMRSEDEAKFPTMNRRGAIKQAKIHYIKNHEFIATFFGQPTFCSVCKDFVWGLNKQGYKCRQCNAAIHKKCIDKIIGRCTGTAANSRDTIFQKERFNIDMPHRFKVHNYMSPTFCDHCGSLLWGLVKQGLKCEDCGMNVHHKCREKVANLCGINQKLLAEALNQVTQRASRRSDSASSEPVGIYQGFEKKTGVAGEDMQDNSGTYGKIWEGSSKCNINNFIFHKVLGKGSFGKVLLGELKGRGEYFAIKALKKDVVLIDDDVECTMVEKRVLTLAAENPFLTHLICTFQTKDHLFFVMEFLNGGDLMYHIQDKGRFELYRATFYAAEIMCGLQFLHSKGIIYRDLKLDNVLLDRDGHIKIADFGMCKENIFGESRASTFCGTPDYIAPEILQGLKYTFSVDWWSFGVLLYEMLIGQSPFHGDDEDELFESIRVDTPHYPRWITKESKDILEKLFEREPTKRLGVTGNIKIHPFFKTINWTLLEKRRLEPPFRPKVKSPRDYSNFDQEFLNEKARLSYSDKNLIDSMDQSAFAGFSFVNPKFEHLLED

The pKi is −log10 of the Ki, conventionally taken in molar units. With `CCCCCCCCCCCCCC[C@H]1C(=O)N[C@H](CO)Cc2ccccc2N1C`, the pKi in assay [1] is 9.10. Consider `CCCCCCCCCC[C@H]1C(=O)N[C@H](CO)Cc2ccccc2N1C`, for which the negative logarithm of the Ki (pKi) in assay [1] was 9.10.

Consider `CCCCCCCCCCCCCCCCCCCC[C@H]1C(=O)N[C@H](CO)Cc2ccccc2N1C`, for which the pEC50 in the assay on HL-60 was 7.15. Also, the pKi in assay [1] is less than 6.00.

`CCCCCCCCCCCC[C@H]1C(=O)N[C@H](CO)Cc2ccccc2N1C`: in assay [1], the pKi was 9.10.

Values taken from ChEMBL document CHEMBL1132859, “Role of the hydrophobic moiety of tumor promoters. Synthesis and activity of 2-alkylated benzolactams” (Bioorg Med Chem Lett, 2000).
